Values of other authors, collected in patent US20120239131A1, “METHODS AND APPARATUS FOR TREATMENT OF ANEURYSMAL TISSUE” (Medtronic Vascular, Inc., priority 2011, published 2012).

Key:
[1] = cited from earlier work
[2] = cited from earlier work; remark: listed apart in the source
[3] = molecular target: ACE (Homo sapiens, UniProt P12821); settings: in vitro; cited from earlier work
ACE, sequence (P12821 30-1306, species assumed): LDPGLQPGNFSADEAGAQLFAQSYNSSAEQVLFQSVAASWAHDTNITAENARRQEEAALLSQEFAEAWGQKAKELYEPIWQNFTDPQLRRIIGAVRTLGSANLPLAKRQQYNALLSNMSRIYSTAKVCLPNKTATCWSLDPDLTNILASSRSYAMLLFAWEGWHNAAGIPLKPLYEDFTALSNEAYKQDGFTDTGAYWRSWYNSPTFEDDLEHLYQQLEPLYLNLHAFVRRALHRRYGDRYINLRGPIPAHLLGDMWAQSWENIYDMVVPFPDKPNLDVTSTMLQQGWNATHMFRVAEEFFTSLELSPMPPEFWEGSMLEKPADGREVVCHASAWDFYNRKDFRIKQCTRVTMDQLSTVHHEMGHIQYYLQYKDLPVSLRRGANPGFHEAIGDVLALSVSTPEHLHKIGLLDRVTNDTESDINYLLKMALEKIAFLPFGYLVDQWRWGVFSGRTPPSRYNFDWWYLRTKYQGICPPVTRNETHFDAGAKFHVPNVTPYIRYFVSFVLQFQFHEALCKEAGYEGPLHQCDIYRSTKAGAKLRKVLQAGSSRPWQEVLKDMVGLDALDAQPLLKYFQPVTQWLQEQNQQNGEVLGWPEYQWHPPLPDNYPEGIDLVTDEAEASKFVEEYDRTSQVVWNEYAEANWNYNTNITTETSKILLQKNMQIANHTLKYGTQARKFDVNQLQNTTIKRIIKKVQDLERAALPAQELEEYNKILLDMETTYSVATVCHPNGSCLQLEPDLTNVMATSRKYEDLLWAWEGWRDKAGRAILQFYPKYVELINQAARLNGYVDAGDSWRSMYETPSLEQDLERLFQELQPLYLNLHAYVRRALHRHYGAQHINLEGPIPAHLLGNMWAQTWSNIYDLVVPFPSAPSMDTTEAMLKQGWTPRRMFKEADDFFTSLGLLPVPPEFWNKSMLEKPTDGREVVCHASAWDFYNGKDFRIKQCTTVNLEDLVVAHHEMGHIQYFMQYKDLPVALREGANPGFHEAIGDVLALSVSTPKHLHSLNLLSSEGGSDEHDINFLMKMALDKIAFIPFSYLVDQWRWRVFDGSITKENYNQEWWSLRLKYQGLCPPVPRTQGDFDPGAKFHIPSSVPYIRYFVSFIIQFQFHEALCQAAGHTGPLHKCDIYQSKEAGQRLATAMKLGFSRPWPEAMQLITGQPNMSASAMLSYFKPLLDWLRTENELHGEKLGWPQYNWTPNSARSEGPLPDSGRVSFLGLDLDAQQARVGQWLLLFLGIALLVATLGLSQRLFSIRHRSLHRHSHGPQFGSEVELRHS

Row | SMILES | Water solubility [1] | Half-life in the plasma ([2]; in vivo) | ACE inhibitor potency (in words) [3] | Time to peak concentrations in the plasma ([2]; after oral administration)
1 | COCCCOc1cc(C[C@@H](C[C@H](N)[C@@H](O)C[C@H](C(=O)NCC(C)(C)C(N)=O)C(C)C)C(C)C)ccc1OC [Aliskiren] | good water solubility | approximately 24 hours | – | –
2 | CCOC(=O)[C@H](CCc1ccccc1)N[C@@H](C)C(=O)N1CCC[C@H]1C(=O)O [enalapril] | – | – | not highly active | –
3 | O=C(O)c1cccnc1 [Niacin, nicotinic acid] | water-soluble | – | – | –
4 | NCCCC[C@H](N[C@@H](CCc1ccccc1)C(=O)O)C(=O)N1CCC[C@H]1C(=O)O [Lisinopril, lisinopril] | – | – | slightly more potent ACE inhibitor than is enalaprilat | about 7 hours
